Source: ChEMBL document CHEMBL1132717, “Development of fluorine-18-labeled 5-HT1A antagonists” (J Med Chem, 1999)

Experiments:
Rattus norvegicus [1] = species on record: Rattus norvegicus; assay: Biodistribution of the [18F]-radiolabeled compound in rat hypothalamus; type: ADME, organism-based; conditions: in vivo
Rattus norvegicus [2] = species on record: Rattus norvegicus; assay: Biodistribution of the [18F]-radiolabeled compound in rat cortex; type: ADME, organism-based; conditions: in vivo
Rattus norvegicus [3] = species on record: Rattus norvegicus; assay: Biodistribution of the [18F]-radiolabeled compound in rat cerebellum; type: ADME, organism-based; conditions: in vivo
Rattus norvegicus [4] = species on record: Rattus norvegicus; assay: Biodistribution of the [18F]-radiolabeled compound in rat hippocampus; type: ADME, organism-based; conditions: in vivo
[5] = biological target: T1, 5-hydroxytryptamine receptor 1A (Homo sapiens, UniProt P08908); assay: In vitro inhibition of [3H]- 8-OH-DPAT binding to cloned cell line containing human 5-hydroxytryptamine 1A receptor
T1 sequence (P08908 whole entry): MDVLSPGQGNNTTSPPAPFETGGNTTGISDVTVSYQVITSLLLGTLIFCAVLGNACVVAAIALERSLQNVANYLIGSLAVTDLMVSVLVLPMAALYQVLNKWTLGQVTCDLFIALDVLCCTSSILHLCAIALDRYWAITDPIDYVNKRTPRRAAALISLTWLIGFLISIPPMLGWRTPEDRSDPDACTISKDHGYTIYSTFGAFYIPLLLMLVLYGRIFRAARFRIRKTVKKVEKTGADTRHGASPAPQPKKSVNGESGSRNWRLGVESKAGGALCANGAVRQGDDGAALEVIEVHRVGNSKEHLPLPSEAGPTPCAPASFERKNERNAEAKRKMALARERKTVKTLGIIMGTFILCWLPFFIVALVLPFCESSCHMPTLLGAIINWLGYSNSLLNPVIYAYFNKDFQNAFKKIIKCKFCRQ

[6] = biological target: T1, 5-hydroxytryptamine receptor 1A; assay: In vitro inhibition of [3H]- 8-OH-DPAT binding to cloned cell line containing human 5-hydroxytryptamine 1A receptor by Panlabs assay
[7] = biological target: T1, 5-hydroxytryptamine receptor 1A; assay: In vitro inhibition of [3H]- 8-OH-DPAT binding to cloned cell line containing human 5-hydroxytryptamine 1A receptor (Experiment 2)
[8] = biological target: T1, 5-hydroxytryptamine receptor 1A; assay: In vitro inhibition of [3H]- 8-OH-DPAT binding to cloned cell line containing human 5-hydroxytryptamine 1A receptor (Experiment 1)

Row | SMILES | ID/g (Rattus norvegicus [1]) [%] | ID/g (Rattus norvegicus [2]) [%] | ID/g (Rattus norvegicus [3]) [%] | ID/g (Rattus norvegicus [4]) [%] | Ki [5] [pM] | Ki [6] [pM] | Ki [7] [pM] | Ki [8] [pM]
1 | COc1ccccc1N1CCN(CCN(C(=O)c2ccc(F)cc2)c2ccccn2)CC1 | 0.066 | 0.085 | 0.034 | 0.195 | – | – | – | –
2 | COc1ccccc1N1CCN(CCN(C(=O)C2CCC(F)CC2)c2ccccn2)CC1 (stereo unspecified) | 0.499 | 0.823 | 0.064 | 1.298 | 515 | 247 | – | –
3 | COc1ccccc1N1CCN(CCN(C(=O)c2ccc(F)c(C)c2)c2ccccn2)CC1 | – | 0.047 | 0.02 | 0.118 | – | 791 | 1140 | 3960
